For test [1], the system named is PAXF1657 control empty vector cell line. Nature of the test: 7-day proliferation assay, PAXF1657 control empty vector cell line (Example 9). It is filed as cell-based. The note with it: 168 h; Cell Line: PAXF1657 empty vector (EV) cell line; 7-day; read-out: C: 7-day proliferation assay: IC50 GeoMean. The method in brief:
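Isogenic PAXF1657 pairs differing in GRK2 level (stable cDNA overexpression or CRISPR knockout, each with matched control) are seeded and allowed to attach overnight. Inhibitors span 30 μM-0.0002 μM in 0.3% DMSO for 3 plus 4 days at 37° C, 5% CO2, with a medium change between.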

For the next test, the target named is T1, GRK2 (Homo sapiens, UniProt P25098).
T1 construct: purchased SignalChem A14-10G
T1 sequence (P25098 1-689): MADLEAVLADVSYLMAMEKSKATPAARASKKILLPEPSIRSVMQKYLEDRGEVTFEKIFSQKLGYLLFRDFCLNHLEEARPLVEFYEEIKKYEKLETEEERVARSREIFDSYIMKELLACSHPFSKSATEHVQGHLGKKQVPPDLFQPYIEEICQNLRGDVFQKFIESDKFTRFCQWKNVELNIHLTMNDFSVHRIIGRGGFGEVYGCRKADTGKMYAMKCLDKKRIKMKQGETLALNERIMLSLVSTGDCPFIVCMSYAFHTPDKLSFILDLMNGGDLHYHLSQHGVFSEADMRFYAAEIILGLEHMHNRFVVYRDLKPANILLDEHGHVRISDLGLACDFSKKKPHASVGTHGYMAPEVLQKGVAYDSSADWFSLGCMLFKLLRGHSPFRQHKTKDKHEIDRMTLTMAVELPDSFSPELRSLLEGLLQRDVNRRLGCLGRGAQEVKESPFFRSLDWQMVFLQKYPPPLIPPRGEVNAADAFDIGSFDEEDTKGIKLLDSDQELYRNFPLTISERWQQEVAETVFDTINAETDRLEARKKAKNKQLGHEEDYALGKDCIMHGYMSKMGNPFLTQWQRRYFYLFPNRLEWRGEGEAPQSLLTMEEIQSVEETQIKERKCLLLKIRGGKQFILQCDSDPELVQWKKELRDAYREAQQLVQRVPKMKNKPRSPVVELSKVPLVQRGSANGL
The experiment in a line: GRK2 Inhibition Assay (TR-FRET, Example 7). It is filed as biochemical. The settings on record: Enzyme Assay B, TR-FRET (Example 7); read-out: B: Enzymatic GRK2: IC50 (nM) (Example 7). The method in brief:
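GRK2 at 1 nM preincubated 30 min with compound, then reacted 90 min at room temperature with 7 μM ATP and 50 nM ULight-TopoIIα in HEPES/MgCl2/DTT buffer. Phosphorylation detected by TR-FRET after Eu anti-TopoIIα and EDTA addition, 60 min.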

Molecules are shown by their SMILES.

With `Cn1c(CNc2cccc(C(=O)NCc3cc[nH]n3)c2)nnc1-c1ccncn1`, the IC50 is above 10000 nM in test [1] and 39 nM at GRK2.

Take `CCCn1c(CNc2cccc(C(=O)NCc3ccccc3C(F)(F)F)n2)nnc1-c1ccncn1`: the IC50 in test [1] was above 10000 nM; at GRK2, 200 nM.

Regarding `O=C(NCc1cccc2c1OCC2)c1cccc(NCc2nnc(-c3ccncn3)n2CCCO)c1`, the IC50 in test [1] worked out at 14500 nM; on GRK2, 4.2 nM.

For `O=C(NCc1cccnc1C(F)(F)F)c1cccc(NCc2nnc(-c3ccncn3)n2CCCO)c1`, the IC50 in test [1] is above 30000 nM; at GRK2, 5.8 nM.

In the case of `CCc1cnccc1CNC(=O)c1cccc(NCc2nnc(-c3ccncn3)n2CCCNC)c1`, the IC50 in test [1] is above 30000 nM; on GRK2 it was 94 nM.

As for `Cn1c(CNc2cc(C(=O)NCc3cnc4ccccn34)ccn2)nnc1-c1ccncn1`, the IC50 turned out to be 2750 nM in test [1] and 7.9 nM at GRK2.

On to `Cc1cccc2ncc(CNC(=O)c3ccnc(NCc4nnc(-c5ccncn5)n4C)c3)n12`, for which the results for the IC50 (in test [1]; at GRK2) were above 30000 nM and 24 nM, respectively.

For `Cn1c(CNc2cc(C(=O)NCc3cccnc3C(F)(F)F)ccn2)nnc1-c1ccncn1`, the IC50 is above 30000 nM in test [1] and 11 nM on GRK2.

In the case of `Cc1cccc([C@H](CO)NC(=O)c2ccnc(NCc3nnc(-c4ccncn4)n3C)c2)c1`, the IC50 is above 30000 nM in test [1] and 16 nM at GRK2.

In the case of `Cc1cccc([C@@H](CO)NC(=O)c2ccnc(NCc3nnc(-c4ccncn4)n3C)c2)c1`, the figures for the IC50 (in test [1]; at GRK2) were above 30000 nM and 96 nM, respectively.

Take `Cn1c(CNc2cc(C(=O)N[C@@H]3COc4ccccc43)ccn2)nnc1-c1ccncn1`: the IC50 is 1800 nM in test [1] and 26 nM at GRK2.

Turning to `Cn1c(CNc2cc(C(=O)N[C@H]3CCOc4c(Cl)cccc43)ccn2)nnc1-c1ccncn1`, the IC50 in test [1] is above 30000 nM; on GRK2 it was 63 nM.

`Cn1c(CNc2cc(C(=O)N[C@@H]3CCOc4c(Cl)cccc43)ccn2)nnc1-c1ccncn1`: the IC50 in test [1] was 2070 nM; on GRK2, 20 nM.

For the compound `C[C@@H](NC(=O)c1ccnc(NCc2nnc(-c3ccncn3)n2C)c1)c1ncccc1Cl`, the values for the IC50 (in test [1]; at GRK2) were above 30000 nM and 55 nM, respectively.

For `C[C@H](NC(=O)c1ccnc(NCc2nnc(-c3ccncn3)n2C)c1)c1ncccc1Cl`, the IC50 is above 30000 nM in test [1] and 65 nM at GRK2.

For the compound `CCc1cnccc1CNC(=O)c1cccc(NCc2nnc(-c3ccncn3)n2CCCOC)c1`, the figures for the IC50 (in test [1]; at GRK2) were above 30000 nM and 23 nM, respectively.

For `O=C(NCc1cccc2c1OCC2)c1cccc(NCc2nnc(-c3ccncn3)n2CCO)c1`, the IC50 is above 30000 nM in test [1] and 1.7 nM on GRK2.

Regarding `Cc1cccnc1CNC(=O)c1cccc(NCc2nnc(-c3ccncn3)n2CCO)c1`, the IC50 in test [1] was 1160 nM; on GRK2, 2.5 nM.

For `O=C(NCc1ccncc1Cl)c1cccc(NCc2nnc(-c3ccncn3)n2CCO)c1`, the results for the IC50 (in test [1]; at GRK2) were above 2970 nM and below 2.9 nM, respectively.

As for `O=C(NCc1cnc2ccccn12)c1cccc(NCc2nnc(-c3ccncn3)n2CCO)c1`, the IC50 in test [1] is 580 nM; on GRK2, below 0.51 nM.

As for `Cc1cccc2ncc(CNC(=O)c3cccc(NCc4nnc(-c5ccncn5)n4CCO)c3)n12`, the results for the IC50 (in test [1]; at GRK2) were 3080 nM and 1 nM, respectively.

For the compound `O=C(NCc1cccnc1C(F)(F)F)c1cccc(NCc2nnc(-c3ccncn3)n2CCO)c1`, the IC50 in test [1] is above 30000 nM; at GRK2, 0.98 nM.

As for `Cc1cc2c(cc1CNC(=O)c1cccc(NCc3nnc(-c4ccncn4)n3CCO)c1)OCCO2`, the IC50 in test [1] was above 30000 nM; at GRK2, 1.4 nM.

As for `O=C(N[C@@H]1CCOc2c(Cl)cccc21)c1cccc(NCc2nnc(-c3ccncn3)n2CCO)c1`, the IC50 came to 123 nM in test [1] and 4.6 nM at GRK2.

Take `O=C(N[C@H]1CCOc2c(Cl)cccc21)c1cccc(NCc2nnc(-c3ccncn3)n2CCO)c1`: the results for the IC50 (in test [1]; at GRK2) were 163 nM and 1.5 nM, respectively.

Source of the values: patent publication US20230009608A1, “GRK2 INHIBITORS AND USES THEREOF” (Cygnal Therapeutics, Inc., priority 2020, published 2023).
